Data on four molecules can be found in US4621089A, “Pyrazolopyridine derivatives and their use in treating inflammation and allergic conditions” (Beecham Group p.l.c., priority 1984, dated 1986).

The test system of one test is mice. As to conditions: J. Heterocycl. Chem. 1971, 8(6), 1035-7; cited from earlier work.
Another test relates to cantharidin mouse ear. As to the kind of experiment: Mouse Cantharidin Screen (topical anti-inflammatory activity, mouse ear). The test is classed as in vivo. Conditions: ears weighed 24 h after cantharidin. As to the method:
Compounds were tested for topical anti-inflammatory activity in a cantharidin mouse ear screen, modified from Swinge et al [Swingle, K. F., Reiter, M. J. and Schwartzmiller, D. H., Arch. Int. Pharmacodyn., (1981), 254, 168-176].
25 μg cantharidin (in 10 μl THF/MeOH) was applied to both ears. Compound, in the same solvent, was applied at the same time, to the left ear only. Ears were weight 24 h after cantharidin application. Percentage inhibition of the acute inflammatory swelling refers to the increase in weight of left ears (cantharidin plug compound) compared with solvent-treated negative controls, as a proportion of the increase in weight of right ears (cantharidin alone) over similar controls.

Test [1] has as its system mouse sensitised to oxazolone. As to the kind of experiment: Mouse Oxazolone Screen (topical anti-inflammatory activity). The test is classed as in vivo. Conditions: 500 μg/ear topical, ear weights 24 h after oxazolone challenge. As to the method:
Compounds were tested for topical anti-inflammatory activity in a screen using the mouse sensitised to oxazolone, by a method modified from that of Dietrich and Hess [Dietrich, F. M., and Hess, R., Int. Arch. Allergy, (1970), 38, 246-259].
Mice were sensitised with oxazolone (2 mg in 20 μl ethanol) on a shaved area of the abdomen. Five days later, the animals recieved 10 μl THF/MeOH (1:1 v/v) on the right ear, and the test compound in the same solvent on the left ear. One hour later, the animals were challenged with 100 μg oxazolone in 10 μl acetone on each ear. Ear weights were measured 24 h later. Percentage inhibition of the inflammatory swelling refers to the increase in weight of left ears (oxazolone plus compound) compared with solvent-treated negative controls, as a proportion of the increase in weight of right ears (oxazolone alone) over similar controls.

In test [2] the test system is 5-Lipoxygenase enzyme from RBL-1 cells. As to the kind of experiment: RBL-1 5-Lipoxygenase Screen. As to conditions: 20 μM compound, 10,000 g supernatant, 6.3 μm arachidonic acid, 29° C. It counts as biochemical. As to the method:
5-Lipoxygenase enzyme was prepared as a 10,000 g supernatant from RBL-1 cells by the method of Jakschik [Jakschik, B. A., Sun. F. F., Lee, L. M. and Steinhoff, M. M., 1980, Biochem. Biophys. Res. Comm. 95, 103]. The 10,000 g supernatant was diluted with homogenization buffer to the equivalent of 1.5-2.5×10^7 cells ml^-1 and made 2 mM with respect to CaCl2. Aliquots of 0.5 ml were then dispensed into tubes, and incubated at 29° C. with 5 γl ethanol or compound in ethanol at the desired concentration for 2 min. Then [1-^14 C] arachidonic acid was added in buffer to give a final concentration of 6.3 μm and 0.2 μCi per incubation, and the reaction continued at 29° C. for 2 min. The reaction was terminated by adding 1 ml of acetone and cooling on ice, 0.5 ml of ice-cold saline and 10 μl of 2N formic acid were added, and the mixture was extracted with 2×2 ml of chloroform. The extract was stored under N2 at -20° C. until analysis by chromatography. Activity was measured as the percentage of total radioactivity found in 5-HETE and 5,12-diHETE, and inhibition calculated as the decrease in formation of the sum of these two species in compound-treated incubates relative to control incubates.

Turning to `CC(=O)N(C(C)=O)c1cc(C)nc2c(C)n[nH]c12` [compound wherein R is NAc2], the CNS antidepressant activity result with mice is “CNS antidepressant activity”.
On to `C=CCNc1c(C(=O)OCC)cnc2cn[nH]c12` [Example 2, Ethyl 7-Allylamino-1H-pyrazolo[4,3-b]-pyridine-6-carboxylate], for which the “inhibition of the acute inflammatory swelling” value in the test with cantharidin mouse ear (500 μg/ear topical) is 20%.
Take `CCOC(=O)c1cnc2cn[nH]c2c1Nc1ccccc1` [Example 1, Ethyl 7-anilino-1H-pyrazolo[4,3-b]pyridine-6-carboxylate]: the “inhibition of the inflammatory swelling” value in test [1] came to 24%.
With `CCCCNc1c(C(=O)OCC)cnc2cn[nH]c12` [Example 6, Ethyl 7-n-Butylamino-1H-pyrazolo[4,3-b]pyridine-6-carbosylate], the “inhibition of the acute inflammatory swelling” value in the test on cantharidin mouse ear (200 μg/ear topical) came to 42%. For the same molecule, the “inhibition of formation of 5-HETE and 5,12-diHETE” value in test [2] is listed as 78%.
